In US20140171371A1, “Compositions And Methods For The Diagnosis of Schizophrenia” (The Trustees of Columbia University in the City of New York, priority 2011, published 2014):

Tested on: lymphoblastoid cell lines
Assay: Cyclic AMP accumulation in lymphoblastoid cell lines in response to another GPCR agonist (specificity control)
Format: cell-based, human
Conditions: PGE2 1 μM + forskolin 10 μM, IBMX 200 μM pre-incubation, 10 min, fold-change over forskolin/IBMX alone
Procedure: Reactions were terminated by pelleting the cells, aspiration of the medium and addition of 100 μl of cold 7.5% (wt/vol) trichloroacetic acid (TCA). Cyclic AMP content in TCA extracts was determined by radioimmunoassay and normalized to the number of cells per well. […] Results presented for each subject represents the mean and standard error of at least ten replicates. Standard error and P-values for pooled results were computed across individuals (FIG. 3).

CCCCC[C@H](O)/C=C/[C@H]1[C@H](O)CC(=O)[C@@H]1C/C=C\CCCC(=O)O [prostaglandin E2]
cAMP accumulation in response to agonist, 7q36.3 duplication carriers compared to controls: no group difference | cAMP accumulation in response to agonist, 7q36.3 duplication carriers compared to controls (listed as PGE2): No difference | cAMP accumulation in response to agonist, 7q36.3 duplication carriers compared to controls (listed as Prostaglandin E2): No significant differences
